The results in this text go back to patent publication US4996235A, “3,4-diphenylbutanamines” (Eli Lilly and Company, priority 1987, dated 1991).

Structures are written as SMILES. Counter-ions that a name gives are not always drawn.

Test [1] relates to 5HT uptake (rat cerebral cortex synaptosomes). Briefly: Synaptosomal uptake of 3H-serotonin (3H-5HT), inhibition in vitro. The class given is biochemical, Male Sprague-Dawley rats. The settings on record: rat cortical synaptosomes, 37° C., 5 min, 50 nM 3H-5HT. On the procedure: (§1) This general procedure is set forth by Wong et al., in Drug Development Research 6:397-403 (1985).
(§2) Male Sprague-Dawley rats (110-150 g) from Harlan Industries (Cumberland, Ind.) were fed a Purina Chow ad libitum for at least 3 days before being used in the studies. Rats were killed by decapitation. Whole brains were removed and dissected. Cerebral cortex was homogenized in 9 volumes of a medium containing 0.32 M sucrose and 10 mM glucose. Crude synaptosomal preparations were isolated after differential centrifugation at 1,000 g for 10 min. and 17,000 g for 28 min. The final pellets were suspended in the same medium and kept in ice until use within the same day.
(§3) Synaptosomal uptake of ^3 H-serotonin(^3 H-5-hydroxytryptaine, ^3 H-5HT) and ^14 C-l-norepinephrine (^14 C-NE) was determined as follows. Cortical synaptosomes (equivalent to 1 mg of protein) were incubated at 37° C. for 5 min in 1 ml of Krebs-bicarbonate medium containing also 10 mM glucose, 0.1 mM iproniazid, 1 mM ascorbic acid, 0.17 mM EDTA, 50 nM ^3 H-5HT and 100 nM ^14 C-NE. The reaction mixture was immediately diluted with 2 ml of ice-chilled Krebs-bicarbonate buffer and filtered under vacuum with a cell harvester (Brandel, Gaithersburg, Md.). […] Radioactivity was measured by a liquid scintillation spectrophotometer. […]

The subject of test [2] is norepinephrine uptake (rat cerebral cortex synaptosomes). The test is described as follows: Synaptosomal uptake of 14C-l-norepinephrine (14C-NE), inhibition in vitro. The class given is biochemical, Male Sprague-Dawley rats. The settings on record: rat cortical synaptosomes, 37° C., 5 min, 100 nM 14C-NE. The protocol:
as §1, §2, §3

Turning to `CNCCC(Cc1ccc(C(F)(F)F)cc1)c1ccccc1` (stereo not shown) [Example 1, N-Methyl-3-phenyl-4-(4-trifluoromethylphenyl)-butanaminium chloride], the IC50 in test [1] stood at 250 nM; in test [2], 7600 nM.
In the case of `CNCCC(Cc1ccccc1C)c1ccccc1` (stereo not shown) [Example 2, N-Methyl-3-phenyl-4-(2-methylphenyl)-butanaminium tosylate], the IC50 in test [1] was found to be 330 nM; in test [2], 100 nM.

The IC50 is the concentration at which inhibition is half-maximal. A lower IC50 goes with inhibition by little substance.
